Laboratory results from ChEMBL document CHEMBL4483862, “Open-source discovery of chemical leads for next-generation chemoprotective antimalarials” (2018).
pIC50: −log10 of the molar value.

System: Plasmodium berghei
Assay: Luciferase/luciferin-expressing antifolate-resistant parasites were used to infect a culture of HepG2 cells that were pre-incubated with compounds. Infected hepatocytes emit light due to the luciferase reaction. Assay results are presented as the percent inhibition of light emission compared to control. […]
Format: functional
Settings: sporozoite; for IC90: read-out: LUCIFERASE INFECTION ASSAY - IC90

Structure (SMILES): Cc1ccc(C(=O)/C=C/C(=O)c2ccc(C)cc2)cc1
- pIC50 (FFLUC_HILL_SLOPE 1.4, FFLUC_R_SQUARED 0.731, read-out: LUCIFERASE INFECTION ASSAY - IC50): < 5.00
- IC90: > 10 µM

Structure (SMILES): NC1=Nc2cccc3cccc(c23)N1
- pIC50 (FFLUC_HILL_SLOPE 1.44, FFLUC_R_SQUARED 0.698, HEPG2TOX_HILL_SLOPE 2.55, HEPG2TOX_R_SQUARED 0.966, PBLUC_HILL_SLOPE 3.15, PBLUC_R_SQUARED 0.786, read-out: LUCIFERASE INFECTION ASSAY - IC50): 5.19
- IC90: 12.9 µM

Structure (SMILES): O=C(Nc1ccccc1)c1cn(-c2ccc3c(c2)OCCO3)nn1
- pIC50 (FFLUC_HILL_SLOPE 1.49, FFLUC_R_SQUARED 0.912, PBLUC_HILL_SLOPE 0.315, PBLUC_R_SQUARED 0.673, read-out: LUCIFERASE INFECTION ASSAY - IC50): 8.25
- IC90: 5.96 µM

Structure (SMILES): COC(=O)c1c(NC(=O)c2ccoc2)c2cc(NCCc3ccccc3)cnc2n1Cc1ccccc1
- pIC50 (FFLUC_HILL_SLOPE 1.52, FFLUC_R_SQUARED 0.257, PBLUC_HILL_SLOPE 25.4, PBLUC_R_SQUARED 0.141, read-out: LUCIFERASE INFECTION ASSAY - IC50): < 5.18
- IC90: > 6.67 µM

Structure (SMILES): Cn1cnc([N+](=O)[O-])c1Sc1cccs1
- pIC50 (FFLUC_HILL_SLOPE 1.45, FFLUC_R_SQUARED 0.647, PBLUC_HILL_SLOPE 13.1, PBLUC_R_SQUARED 0.224, read-out: LUCIFERASE INFECTION ASSAY - IC50): < 4.86
- IC90: > 13.7 µM

Structure (SMILES): O=C1C=CC(=O)N1c1ccc(Cl)cc1Br
- pIC50 (FFLUC_HILL_SLOPE 1.45, FFLUC_R_SQUARED 0.668, PBLUC_HILL_SLOPE 3.96, PBLUC_R_SQUARED 0.503, read-out: LUCIFERASE INFECTION ASSAY - IC50): 5.30
- IC90: 8.68 µM

Structure (SMILES): O=[N+]([O-])c1ccc2c(c1)nc(SCc1ccc(Cl)cc1Cl)n2-c1ccccc1
- pIC50 (FFLUC_HILL_SLOPE 1.41, FFLUC_R_SQUARED 0.219, read-out: LUCIFERASE INFECTION ASSAY - IC50): < 5.00
- IC90: > 10 µM

Structure (SMILES): COc1ccc(C2C3CSc4ccccc4C3=NN2c2ccccc2)cc1 (centres undefined)
- pIC50 (FFLUC_HILL_SLOPE 1.37, FFLUC_R_SQUARED 0.894, PBLUC_HILL_SLOPE 1.03, PBLUC_R_SQUARED 0.404, read-out: LUCIFERASE INFECTION ASSAY - IC50): 5.31
- IC90: > 8.86 µM

Structure (SMILES): COc1ccccc1N1CCN(c2nc(=O)c3c([nH]2)CCC3)CC1
- pIC50 (FFLUC_HILL_SLOPE 1.43, FFLUC_R_SQUARED 0.67, PBLUC_HILL_SLOPE 2.78, PBLUC_R_SQUARED 0.645, read-out: LUCIFERASE INFECTION ASSAY - IC50): 6.24
- IC90: 1.26 µM

Structure (SMILES): CCOC(=O)c1sc(N2N=C3/C(=C/c4ccccc4Cl)CCCC3C2c2ccccc2Cl)nc1C (centres undefined)
- pIC50 (FFLUC_HILL_SLOPE 1.4, FFLUC_R_SQUARED 0.297, PBLUC_HILL_SLOPE 2.64, PBLUC_R_SQUARED 0.0563, read-out: LUCIFERASE INFECTION ASSAY - IC50): 5.30
- IC90: > 10 µM

Structure (SMILES): Cc1cc(C(=O)NCc2nnc3ccccn23)c(C)n1C1CCCCC1
- pIC50 (FFLUC_HILL_SLOPE 1.4, FFLUC_R_SQUARED 0.0106, PBLUC_HILL_SLOPE 1.41, PBLUC_R_SQUARED 0.709, read-out: LUCIFERASE INFECTION ASSAY - IC50): 5.86
- IC90: 6.61 µM

Structure (SMILES): CNC(=O)c1ccc(/C=C/C(=O)N(c2ccc(C)c(F)c2)c2nc3ccccc3s2)cc1
- pIC50 (FFLUC_HILL_SLOPE 1.49, FFLUC_R_SQUARED 0.0757, PBLUC_HILL_SLOPE 4.44, PBLUC_R_SQUARED 0.348, read-out: LUCIFERASE INFECTION ASSAY - IC50): 5.26
- IC90: 8.92 µM

Structure (SMILES): COc1ccc(Nc2nccn3c(-c4cccc(C(=O)NCCO)c4)cnc23)cc1
- pIC50 (FFLUC_HILL_SLOPE 1.47, FFLUC_R_SQUARED 0.89, PBLUC_HILL_SLOPE 0.68, PBLUC_R_SQUARED 0.895, read-out: LUCIFERASE INFECTION ASSAY - IC50): 6.74
- IC90: 4.59 µM

Structure (SMILES): O=C(Nc1ccccc1Sc1ncc([N+](=O)[O-])s1)c1cccs1
- pIC50 (FFLUC_HILL_SLOPE 1.44, FFLUC_R_SQUARED 0.479, read-out: LUCIFERASE INFECTION ASSAY - IC50): < 5.04
- IC90: > 9.08 µM

Structure (SMILES): O=C1CCCN1c1ccc(C2=NNC(=NC3CC3)SC2)cc1
- pIC50 (FFLUC_HILL_SLOPE 1.46, FFLUC_R_SQUARED 0.93, PBLUC_HILL_SLOPE 0.517, PBLUC_R_SQUARED 0.899, read-out: LUCIFERASE INFECTION ASSAY - IC50): 7.88
- IC90: 0.932 µM

Structure (SMILES): CC(C)Cc1ccc(C(=O)CC2OC(=O)c3ccccc32)cc1 (centres undefined)
- pIC50 (FFLUC_HILL_SLOPE 1.52, FFLUC_R_SQUARED 0.66, PBLUC_HILL_SLOPE 3.96, PBLUC_R_SQUARED 0.504, read-out: LUCIFERASE INFECTION ASSAY - IC50): 5.08
- IC90: > 10.7 µM

Structure (SMILES): O=C(O)c1ccc(Cl)cc1Oc1ccccc1
- pIC50 (FFLUC_HILL_SLOPE 1.52, FFLUC_R_SQUARED 0.302, read-out: LUCIFERASE INFECTION ASSAY - IC50): < 4.88
- IC90: > 13.3 µM

Structure (SMILES): C=CCSc1nnc(NC(=O)C2Cc3ccccc3CN2S(=O)(=O)c2ccccc2F)s1 (centres undefined)
- pIC50 (FFLUC_HILL_SLOPE 1.45, FFLUC_R_SQUARED 0.33, PBLUC_HILL_SLOPE 5.35, PBLUC_R_SQUARED 0.362, read-out: LUCIFERASE INFECTION ASSAY - IC50): 5.14
- IC90: > 10 µM

Structure (SMILES): CC(C)(C)c1ccc(C(=O)Nc2ncccc2O)cc1
- pIC50 (FFLUC_HILL_SLOPE 1.42, FFLUC_R_SQUARED 0.79, PBLUC_HILL_SLOPE 0.554, PBLUC_R_SQUARED 0.72, read-out: LUCIFERASE INFECTION ASSAY - IC50): 7.91
- IC90: 0.647 µM

Structure (SMILES): CSc1nnnn1-c1cccc(NC(=O)c2cc(-c3cc(C)oc3C)nc3c2cnn3C(C)C)c1
- pIC50 (FFLUC_HILL_SLOPE 1.52, FFLUC_R_SQUARED 0.0983, PBLUC_HILL_SLOPE 1.97, PBLUC_R_SQUARED 0.288, read-out: LUCIFERASE INFECTION ASSAY - IC50): 5.28
- IC90: > 10 µM

Structure (SMILES): C=c1ccccc1=C1NN=C(Nc2ccc(F)c(F)c2F)O1
- pIC50 (FFLUC_HILL_SLOPE 1.45, FFLUC_R_SQUARED 0.745, PBLUC_HILL_SLOPE 0.464, PBLUC_R_SQUARED 0.746, read-out: LUCIFERASE INFECTION ASSAY - IC50): 6.01
- IC90: > 10 µM

Structure (SMILES): CCOc1ccc(C2=NNC(=Nc3cccc(S(=O)(=O)N(C)C)c3)SC2)cc1
- pIC50 (FFLUC_HILL_SLOPE 1.45, FFLUC_R_SQUARED 0.572, HEPG2TOX_HILL_SLOPE 2.21, HEPG2TOX_R_SQUARED 0.976, PBLUC_HILL_SLOPE 3.43, PBLUC_R_SQUARED 0.708, read-out: LUCIFERASE INFECTION ASSAY - IC50): 5.58
- IC90: 4.99 µM

Structure (SMILES): CCN(CC)S(=O)(=O)c1cccc(C(=O)c2c(C)c(Sc3ccc(Cl)cc3)c3ccccn23)c1
- pIC50 (FFLUC_HILL_SLOPE 1.47, FFLUC_R_SQUARED 0.14, read-out: LUCIFERASE INFECTION ASSAY - IC50): < 5.00
- IC90: > 10 µM

Structure (SMILES): O=C(Nc1nn2cc(-c3ccccc3)nc2s1)C1CCC1
- pIC50 (FFLUC_HILL_SLOPE 1.5, FFLUC_R_SQUARED 0.884, PBLUC_HILL_SLOPE 0.386, PBLUC_R_SQUARED 0.673, read-out: LUCIFERASE INFECTION ASSAY - IC50): 8.33
- IC90: 1.39 µM

Structure (SMILES): O=c1c(Cl)c(Cl)cnn1-c1cnc2ccccc2n1
- pIC50 (FFLUC_HILL_SLOPE 1.37, FFLUC_R_SQUARED 0.431, HEPG2TOX_HILL_SLOPE 2.28, HEPG2TOX_R_SQUARED 0.959, PBLUC_HILL_SLOPE 0.482, PBLUC_R_SQUARED 0.686, read-out: LUCIFERASE INFECTION ASSAY - IC50): 6.83
- IC90: > 11.3 µM

Structure (SMILES): NC(=O)c1cc(-c2csc(NC(=O)Cc3ccc(Cl)c(Cl)c3)n2)c[nH]1
- pIC50 (FFLUC_HILL_SLOPE 1.47, FFLUC_R_SQUARED 0.0625, read-out: LUCIFERASE INFECTION ASSAY - IC50): < 5.00
- IC90: > 10 µM

Structure (SMILES): c1cc2c(cc1C1=NNC(=NC3CC3)SC1)CCCC2
- pIC50 (FFLUC_HILL_SLOPE 1.51, FFLUC_R_SQUARED 0.952, HEPG2TOX_HILL_SLOPE 2.86, HEPG2TOX_R_SQUARED 0.94, PBLUC_HILL_SLOPE 0.977, PBLUC_R_SQUARED 0.884, read-out: LUCIFERASE INFECTION ASSAY - IC50): 7.53
- IC90: 0.277 µM

Structure (SMILES): Nc1ncc(-c2ccccc2Oc2ccccc2)cc1-c1ccc(O)cc1
- pIC50 (FFLUC_HILL_SLOPE 1.5, FFLUC_R_SQUARED 0.249, PBLUC_HILL_SLOPE 4.63, PBLUC_R_SQUARED 0.261, read-out: LUCIFERASE INFECTION ASSAY - IC50): 5.18
- IC90: > 9.31 µM

Structure (SMILES): CCOc1ccc(OS(=O)(=O)c2ccc(-n3ncc(Cl)c(Cl)c3=O)cc2)cc1
- pIC50 (FFLUC_HILL_SLOPE 1.43, FFLUC_R_SQUARED 0.409, HEPG2TOX_HILL_SLOPE 3.88, HEPG2TOX_R_SQUARED 0.973, PBLUC_HILL_SLOPE 4.23, PBLUC_R_SQUARED 0.659, read-out: LUCIFERASE INFECTION ASSAY - IC50): 5.70
- IC90: 3.34 µM

Structure (SMILES): O=c1c(Cl)c(Cl)cnn1-c1ccc(C(F)(F)F)cc1
- pIC50 (FFLUC_HILL_SLOPE 1.51, FFLUC_R_SQUARED 0.59, HEPG2TOX_HILL_SLOPE 2.35, HEPG2TOX_R_SQUARED 0.929, PBLUC_HILL_SLOPE 2.87, PBLUC_R_SQUARED 0.611, read-out: LUCIFERASE INFECTION ASSAY - IC50): 5.63
- IC90: 5 µM

Structure (SMILES): O=C(Nc1cccc([N+](=O)[O-])c1)c1[nH]nc2ccccc12
- pIC50 (FFLUC_HILL_SLOPE 1.37, FFLUC_R_SQUARED 0.513, PBLUC_HILL_SLOPE 0.728, PBLUC_R_SQUARED 0.84, read-out: LUCIFERASE INFECTION ASSAY - IC50): 6.84
- IC90: 2.96 µM

Structure (SMILES): COc1cccc(N2C(=O)C=CC2=O)c1
- pIC50 (FFLUC_HILL_SLOPE 1.51, FFLUC_R_SQUARED 0.52, PBLUC_HILL_SLOPE 2.51, PBLUC_R_SQUARED 0.451, read-out: LUCIFERASE INFECTION ASSAY - IC50): 4.99
- IC90: > 16.2 µM
